From US20240366634A1, “METHODS FOR THE TREATMENT OF CB1-, TRPA1- AND TRPV1-DEPENDENT CONDITIONS” (BUZZELET DEVELOPMENT AND TECHNOLOGIES LTD., priority 2021, published 2024)

Assays:
Assay type in all cases: cell-based
[1] = target: T1, hTRPA1 (Homo sapiens, UniProt O75762); assay: Live-cell calcium imaging (Fura-2) of TRPA1 activation in TREx 293 cells
T1 construct: expressed in transfected cells; host or cells: TREx 293 cells, pcDNA4/TO vector, doxycycline-induced
Experimental: rTRPV1 or hTRPA1 were stably expressed in TREx 293 cells following the manufacturer's protocol (Invitrogen, MA, USA). Briefly, TREx host cell line (Invitrogen, MA, USA) was transfected with pcDNA4/TO containing the gene of interest using Mirus LT1 transfection reagent (Mirus Bio, WI, USA) with Opti-MEM I Reduced Serum Medium (Invitrogen, MA, USA). Successful recombination and maintenance were confirmed through zeocin (500 μg/ml; Invivogen, Toulouse, France) selection to establish a stably-transfected cell line. Cells were grown in DMEM (Sigma-Aldrich, MO, USA) supplemented with 10% FBS, 1% penicillin-streptomycin, 2 mM L-alanine L-glutamine, and 25 mM HEPES (pH 7.3) supplemented with 5 μg/ml blasticidin at 37° C. and 5% CO2. Cells were passaged twice per week. Three hours before analysis, cells were treated with doxycycline (0.2-1 μg/ml) to induce transgene expression.
Flip-in TREX293T cells were spotted at PDL (0.2 mg/ml)-coated imaging chambers (μ-slide, 8-well; Ibidi, Martinsried, Germany) and incubated for 1.5-2 h in a humidified incubator at 37° C. and 5% CO2. Cells were loaded with 3 μg/ml Fura-2 AM (Thermo Fisher Scientific) dissolved in Ringer solution. The imaging chamber was placed onto the inverted microscope (IX70; Olympus, Tokyo, Japan). Cells were illuminated with a 175W xenon arc lamp, and excitation wavelengths (340/380 nm) were selected by a Lambda DG-4 monochromatic wavelength changer (Sutter Instrument, Novato, CA, USA). Intracellular Ca2+ concentration was measured by digital video microfluorometry illuminated interline CCD camera (Exi Blue; QImaging, Surrey, BC, Canada) using MetaFluor fluorescence ratio imaging software (Molecular Devices). Dual images (340 and 380 nm excitation, 510 nm emission) were collected, and pseudocolor ratio-metric images were monitored every 4 s during the experiment. Data analysis was performed with MetaFluor fluorescence ratio imaging software. Data are presented as a normalized intensity of baseline fluorescence. All experiments were carried out at room temperature.
Data for THC (leftmost column) and for THC with a 1/10 concentration of a terpene are presented. Response amplitudes are normalized to the maximal activation obtained by administration of Allyl Isothiocyanate (AITC). Numbers in parentheses represent p values for the comparison of the TRPA1 activation for THC and for THC plus a 1/10 concentration terpene.

[2] = target: T2, GIRK channel (Homo sapiens, UniProt P48051+P48549); assay: Receptor-independent effect on GIRK current in oocytes expressing the GIRK channel but not the CB1 receptor
T2 construct: expressed in transfected cells; host or cells: Xenopus laevis oocytes injected with cRNA
T2 sequence (P48549 1-501): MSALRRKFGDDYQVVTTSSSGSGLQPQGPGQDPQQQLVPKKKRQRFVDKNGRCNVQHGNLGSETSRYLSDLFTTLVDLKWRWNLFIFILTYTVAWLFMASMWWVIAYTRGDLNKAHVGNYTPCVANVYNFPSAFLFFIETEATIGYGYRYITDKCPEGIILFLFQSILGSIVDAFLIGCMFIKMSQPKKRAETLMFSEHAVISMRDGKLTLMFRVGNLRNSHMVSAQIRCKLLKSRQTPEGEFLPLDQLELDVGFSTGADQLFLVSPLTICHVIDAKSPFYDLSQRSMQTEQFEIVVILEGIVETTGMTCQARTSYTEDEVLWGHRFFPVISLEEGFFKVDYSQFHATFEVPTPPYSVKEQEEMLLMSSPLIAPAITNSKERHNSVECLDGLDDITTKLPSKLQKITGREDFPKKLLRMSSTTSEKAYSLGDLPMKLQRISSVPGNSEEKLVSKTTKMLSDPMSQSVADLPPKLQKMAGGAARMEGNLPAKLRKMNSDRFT
T2 sequence (P48051 1-423): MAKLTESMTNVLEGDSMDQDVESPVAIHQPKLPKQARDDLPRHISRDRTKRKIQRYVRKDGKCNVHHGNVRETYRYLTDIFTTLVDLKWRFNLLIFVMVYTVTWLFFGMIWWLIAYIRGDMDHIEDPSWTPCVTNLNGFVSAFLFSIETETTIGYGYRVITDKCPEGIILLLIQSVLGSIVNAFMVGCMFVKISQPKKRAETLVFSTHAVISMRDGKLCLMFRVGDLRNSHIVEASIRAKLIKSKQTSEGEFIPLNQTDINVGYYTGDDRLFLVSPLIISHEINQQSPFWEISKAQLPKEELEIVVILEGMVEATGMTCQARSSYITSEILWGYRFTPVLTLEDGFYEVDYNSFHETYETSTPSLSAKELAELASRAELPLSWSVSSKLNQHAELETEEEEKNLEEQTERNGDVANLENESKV
Experimental: To do so, the effect of THC and a panel of various terpenes was measured on oocytes expressing the GIRK channel but not the CB1 receptor.

[3] = target: T3, CB1 receptor (Homo sapiens, UniProt P21554); assay: CB1 receptor activation by THC in combination with terpenes, Xenopus oocyte GIRK current; conditions: terpene:THC weight/weight ratio 1:10; ratio of THC concentrations evoking 50% of maximal response with and without terpene
T3 construct: expressed in transfected cells; host or cells: Xenopus laevis oocytes injected with cRNA
T3 sequence (P21554 whole entry): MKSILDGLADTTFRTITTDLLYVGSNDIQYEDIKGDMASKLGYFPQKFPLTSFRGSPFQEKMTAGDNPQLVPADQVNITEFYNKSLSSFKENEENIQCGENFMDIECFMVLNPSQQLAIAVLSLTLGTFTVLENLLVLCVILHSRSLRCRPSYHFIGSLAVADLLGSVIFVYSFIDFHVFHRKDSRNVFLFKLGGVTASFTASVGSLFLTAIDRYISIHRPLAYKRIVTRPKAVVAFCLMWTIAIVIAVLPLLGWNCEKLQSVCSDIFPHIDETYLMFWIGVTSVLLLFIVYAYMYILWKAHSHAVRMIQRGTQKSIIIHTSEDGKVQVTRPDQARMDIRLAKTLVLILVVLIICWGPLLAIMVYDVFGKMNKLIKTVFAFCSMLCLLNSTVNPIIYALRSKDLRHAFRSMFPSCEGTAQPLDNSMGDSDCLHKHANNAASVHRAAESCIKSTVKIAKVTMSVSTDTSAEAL
Experimental: Xenopus oocytes were used as a functional expression system, as described in Example 1.
Terpenes were administered together with tetrahydrocannabinol (THC) at a terpene to THC weight/weight ratio in the range between 0.05:1 and 1:1.
Augmented activation was given as fold change. Fold change in potency is given as the ratio between the THC concentration required to evoke 50% of the maximal response in the presence of terpene and the THC concentration that evoked the same response in the absence of terpene.

[4] = target: T3, CB1 receptor; assay: CB1 receptor activation by terpenes, CB1-mediated GIRK currents in Xenopus oocytes (two-electrode voltage clamp); conditions: 10 μM terpene alone; response amplitude normalized to response obtained with 10 μM THC; Xenopus oocytes expressing CB1, GIRK1/2, Gαi3
Experimental: To test the possibility that the presence of various terpenes affects the activation of the CB1 receptor, the Inventors used Xenopus oocytes as a functional expression system. To this end, Xenopus oocytes were injected with cRNAs of proteins involved in the pathway leading to activation of K+ currents by CB1 receptor via βγ subunits of the G-proteins: The CB1 receptor, the two subunits of the GIRK channel (GIRK1 and GIRK2), and the Gαi3 subunit.
cDNA plasmids of the two subunits (GIRK1 and GIRK2) of the G protein-coupled inwardly-rectifying potassium (GIRK) receptor, the CB1 receptor, and the α subunit of the G-protein (Gαi3) were linearized with the appropriate restriction enzymes. The linearized plasmids were transcribed in vitro using a standard procedure.
X. laevis oocytes were isolated and incubated in NDE96 solution composed of ND96 (in mM: 96 NaCl, 2 KCl, 1 CaCl2, 1 MgCl2, 5 Hepes, with pH adjusted to 7.5 with NaOH) with the addition of 2.5 mM Na+ pyruvate, 100 units/ml penicillin, and 100 μg/ml streptomycin. A day after their isolation, the oocytes were injected with the relevant cRNAs. cRNAs of CB1 receptor (2 ng) and GIRK1 and GIRK2 (200 pg each) were injected. In addition, cRNA of Gαi3 (1000 pg) was injected to decrease the basal GIRK current (IK) and to improve the relative activation by the agonist (17).
Currents were measured 3-5 days after cRNA injection and were recorded using the standard two-electrode voltage clamp technique (Axoclamp 2B amplifier, Axon Instruments, Foster City, CA). Each oocyte was placed in the recording bath containing ND96 solution and was impaled with two electrodes pulled from 1.5-mm Clark capillaries (CEI, Pangboure, England). Both electrodes were filled with 3M KCl solution and the electrodes resistances were between 1-5 MΩ). The CB1-mediated GIRK currents were measured in a 24 mM K+ solution (in mM: 72 NaCl, 24 KCl, 1 CaCl2, 1 MgCl2, 5 Hepes, with pH adjusted to 7.5 with KOH). pCLAMP10 software (Axon Instruments) was used for data acquisition and analysis.
Next, the dependence of the THC-induced K+ current (ITHC) on THC concentration (dose-response) was measured. The oocyte was voltage-clamped to-80 mV in a low K+ (2 mM K+) solution, ND96. Basal GIRK current (IK) was developed upon replacement of the ND96 by the 24 mM K+ solution. This current represents the basal activation of GIRK channel by endogenous βγ subunits present in the oocytes. Then, five concentrations of THC were applied sequentially, giving rise to ITHC. This current was terminated upon washout of THC. Employing this basic experimental protocol, a full dose-response curve was constructed. To be able to compare between oocytes, ITHC at any particular THC concentration was normalized to ITHC obtained at a 10 μM, defined as the reference response.
Next, the effect of terpenes on CB1 activation was assessed.
Response amplitudes were normalized to the response obtained with 10 μM THC.

[5] = 30 μM THC with a 1/10 concentration of the terpene
[6] = 8 μM THC with a 1/10 concentration of the terpene

T1 sequence (O75762 whole entry): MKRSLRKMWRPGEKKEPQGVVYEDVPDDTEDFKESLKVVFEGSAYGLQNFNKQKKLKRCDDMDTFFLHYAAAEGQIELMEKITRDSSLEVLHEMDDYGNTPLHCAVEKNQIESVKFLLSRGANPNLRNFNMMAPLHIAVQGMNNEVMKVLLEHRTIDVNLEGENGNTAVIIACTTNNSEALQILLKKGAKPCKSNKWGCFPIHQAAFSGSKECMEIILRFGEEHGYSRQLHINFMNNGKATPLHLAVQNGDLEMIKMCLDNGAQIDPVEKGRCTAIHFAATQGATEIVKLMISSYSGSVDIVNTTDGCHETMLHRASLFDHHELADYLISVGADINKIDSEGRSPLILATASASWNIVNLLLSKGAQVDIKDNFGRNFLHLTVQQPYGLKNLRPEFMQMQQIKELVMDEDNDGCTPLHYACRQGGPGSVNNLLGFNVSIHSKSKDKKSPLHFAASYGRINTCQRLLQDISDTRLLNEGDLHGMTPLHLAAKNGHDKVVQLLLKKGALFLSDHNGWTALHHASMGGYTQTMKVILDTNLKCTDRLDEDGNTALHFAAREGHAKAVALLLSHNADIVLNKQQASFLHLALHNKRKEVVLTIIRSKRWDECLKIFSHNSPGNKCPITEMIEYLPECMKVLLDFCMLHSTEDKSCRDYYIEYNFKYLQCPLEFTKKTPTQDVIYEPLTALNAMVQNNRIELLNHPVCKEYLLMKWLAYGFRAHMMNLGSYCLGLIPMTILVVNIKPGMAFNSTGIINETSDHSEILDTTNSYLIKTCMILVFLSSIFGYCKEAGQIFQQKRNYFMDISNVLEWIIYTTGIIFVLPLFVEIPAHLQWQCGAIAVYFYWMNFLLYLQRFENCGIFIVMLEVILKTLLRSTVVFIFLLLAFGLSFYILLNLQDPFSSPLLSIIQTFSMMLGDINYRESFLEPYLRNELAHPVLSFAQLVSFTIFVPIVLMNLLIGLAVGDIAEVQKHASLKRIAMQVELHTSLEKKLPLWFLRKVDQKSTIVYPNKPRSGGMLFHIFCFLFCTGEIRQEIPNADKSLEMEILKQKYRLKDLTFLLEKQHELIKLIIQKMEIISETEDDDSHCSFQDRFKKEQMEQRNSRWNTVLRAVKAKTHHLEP

Structure (SMILES)	Fold change of THC potency by terpene, at terpene:THC ratio of 1:10 [3]	Response to 10 μM terpene [4]	also measured
CC(C)=CCCC(C)=CC=O [Citral]			TRPA1 response amplitude normalized to maximal activation by AITC [1, 5]: 0.96
CC1CCC(C(C)C)C(O)C1 (centres unmarked) [Menthol]			TRPA1 response amplitude normalized to maximal activation by AITC [1, 6]: 0.44
CCCCCc1cc(O)c2c(c1)OC(C)(C)[C@@H]1CCC(C)=C[C@@H]21 [THC, tetrahydrocannabinol, reference compound]			TRPA1 response amplitude normalized to maximal activation by AITC ([1]; 8 μM THC alone): 0.35; TRPA1 response amplitude normalized to maximal activation by AITC ([1]; 30 μM THC alone): 0.8; Effect on the GIRK current [2]: None of these compounds showed an effect on the GIRK current
CC1(C)C2CCC1(C)C(O)C2 (centres unmarked) [borneol]	4.469		
CC12CCC(CC1)C(C)(C)O2 [eucalyptol]		0.41 ± 0.04	TRPA1 response amplitude normalized to maximal activation by AITC [1, 6]: 0.48; TRPA1 response amplitude normalized to maximal activation by AITC [1, 5]: 0.93
CC(C)=CCC/C(C)=C/CO [geraniol]	1.576	0.31 ± 0.08	
C=C(C)[C@H]1CC=C(C)CC1 [limonene]	3.369	0.23 ± 0.02	
C=CC(C)(O)CCC=C(C)C (centres unmarked) [linalool]	1.553		TRPA1 response amplitude normalized to maximal activation by AITC [1, 6]: 0.44; TRPA1 response amplitude normalized to maximal activation by AITC [1, 5]: 0.93
C=CC(=C)CCC=C(C)C [myrcene]		0.26 ± 0.07	
C=CC(C)=CCC=C(C)C [ocimene]	2.639	0.36 ± 0.05	
C=C1CCC2(C(C)C)CC12 (centres unmarked) [sabinene]	1.685		
CC1=CCC(=C(C)C)CC1 [terpinolene]		0.45 ± 0.02	
CC1=CCC2CC1C2(C)C (stereo not drawn) [α-pinene]		0.29 ± 0.03	
C=C1CCC2CC1C2(C)C (stereo not drawn) [β-pinene]		0.29 ± 0.06	
